Measurements published in patent publication US10544113B2 (priority 2016, dated 2020).

Tested on: B6 mice
Experiment: Tail-flick test
Type: in vivo, mouse
Description: In an exemplary in vivo method, a test compound and a MOR antagonist are injected into a mouse pain model (for example, intravenous but not limited), basal latencies are recorded before the treatment and test latencies are recorded at various specified times after the injection, and a time-response curve is recorded and AUC values are calculated to determine whether an analgesic effect is exerted on the mouse. The test compound is confirmed to be an antagonist-to-agonist allosteric modifier of the MOR upon observation of an analgesic effect.
Male wild-type (WT) B6 mice (25-30 g) were kept in a temperature-controlled animal room with a 12-h light/dark cycle. The protocol has been approved by the Institutional Animal Care and Use Committee of the National Health Research Institutes, Taiwan. Animal experiments were carried out in accordance with the Policies on the Use of Animals in Neuroscience Research and the ethical guidelines for investigations of experimental pain in conscious animals, International Association for the Study of Pain. Tail-Flick Analgesia Meter (Columbia Instruments) was used to measure the tail-flick latencies of mice. The cut-off time for each measurement was 10 s to avoid tissue damage. Basal latencies were recorded before treatment and test latencies were recorded 30, 60, 90, 120 and 180 min after an intravenous injection of drugs. […] ED50 values were determined by the up-and-down method reported in Crocker et al., Pharmacol Biochem Behav, 1984, 21, 133-136.
An in vivo study, i.e., tail-flick test, was performed to investigate whether AAMs could change innate character of μ-opioid receptor in the presence of naloxone. […] In mice injected with naloxone (10 mg/kg; s.c.), the ED50 value of compound 58 in inhibition of the tail-flick response was determined to be 23.1±7.1 nmole.

## Cc1cc(C(=O)O)ccc1N1C(=O)CSC1c1ccc(F)cc1 (stereo not drawn)
12.5 nmole i.t. with naloxone (10 mg/kg; s.c.)
  AUC of tail-flick inhibition: 241.5±111.3 min×s
25 nmole i.t. with naloxone (10 mg/kg; s.c.)
  AUC of tail-flick inhibition: 560.6±96.5 min×s
50 nmole i.t. with naloxone (10 mg/kg; s.c.)
  AUC of tail-flick inhibition: 649.8±123.3 min×s
B6 mice, 50, 25, 12.5 and 6.25 nmole i.t., no naloxone
  antinociceptive effect, compound alone: didn't exhibit any antinociceptive effects
Mice injected with naloxone (10 mg/kg; s.c.), compound i.t.
  ED50 in inhibition of the tail-flick response: 23.1 ± 7.1 nmol
saline, highest dose 50 nmole i.t.
  antinociception effect in mice injected with saline: no antinociception effect was observed
